Experimental data as given in ChEMBL document CHEMBL4304803, “C-terminal modulators of heat shock protein of 90 kDa (HSP90): State of development and modes of action” (Bioorg Med Chem, 2019).

Molecular target: Heat shock protein HSP90 (Homo sapiens, UniProt P07900+P08238)
Experiment: Binding affinity to HSP90 CTD (unknown origin) by circular dichroism spectroscopy
Assay type: protein assay

- Kd: 27.4 µM
SMILES: CC[C@H](C)[C@@H](ONC(=O)[C@H](ONC(=O)[C@@H](Cc1ccccc1)ONC(=O)[C@@H](Cc1ccccc1)ONC(=O)OCc1ccccc1)[C@@H](C)CC)C(=O)NO[C@H](CC(C)C)C(=O)NO[C@H](CC(C)C)C(N)=O
